Test results from US20040213755A1, “Compositions and methods for reducing odor” (priority 2000, published 2004).

Key:
[1] = GC headspace analysis of odor emitting compound; conditions: 500 μL of 0.1% solution in water; % of control; 0% = complete removal
Description: (§1) The first odor reducing composition of the invention was 89% L-aspartic acid, 1% ZnO, and 10% Smellrite® zeolite (Invention #1). The second odor reducing composition of the invention was 88% L-aspartic acid, 2% ZnO, and 10% Smellrite® zeolite (Invention #2). The odor emitting compounds were tested neat, and triethylamine (0.1%), dimethylsulfide (0.1%), and isovaleric acid (0.82%) were also tested as solutions in water.
(§2) In the tests using the water solutions of the odor emitting compounds, 500 μL of the solutions were used for all samples.
(§3) Samples were prepared using 20 mL serum bottles with septum caps, and gas tight syringes were used to sample the headspace in the serum bottles. The sample was weighed into the serum bottle, the odor emitting compounds were added, and the sample bottles capped. The sample and the odor emitting compound in the serum bottle was mixed in each case. The serum bottle was then allowed to stand for 30 minutes and a 100 μL sample was taken from headspace of the serum bottle using a gas tight syringe and then injected into a gas chromatograph (GC) for analysis.
(§4) The GC analysis was performed using a H—P 5890-11 GC with a FID detector and a Split/Splitless injector, and a H—P 3396 integrator. The column used was a capillary H—P Ultra-2 (50 m×0.32 mm×0.52 μm). The GC conditions used were: injector temperature=300° C., detector temperature=330° C., oven temperature program=70° C. initial hold for 4 min., raise temperature 7° C./min. to 235° C., hold at 235° C. for 4 min. with total run length of 31.6 min. The split was turned off at injection and turned on after 30 seconds.
(§5) Complete removal of odor is represented as 0% and the control is 100%.

[2] = GC headspace analysis of odor emitting compound; conditions: 500 μL of 0.82% solution in water; % of control; 0% = complete removal
Description: as §1, §2, §3, §4, §5

[3] = GC headspace analysis of odor emitting compound; conditions: 500 μL of 0.1% solution in water; % of control; 0% = complete removal; remark: listed apart in the source
Description: as §1, §2, §3, §4, §5

Row | Compound | % Odor, Triethylamine (0.1% in water) [1] [%] | % Odor, Isovaleric acid (0.82% in water) [2] [%] | % Odor, Dimethylsulfide (0.1% in water) [3] [%]
1 | O=C([O-])O.[Na+] [Baking soda, sodium bicarbonate] | 19. | 8.7 | 93.6
2 | N[C@@H](CC(=O)O)C(=O)O [L-aspartic acid] | 0 | 13.9 | 82.2
3 | [O]=[Zn] [Zinc oxide, zinc oxide] | 79.3 | 0 | 96.4
